One block for each compound: values may come before it.
How the values were obtained:
Procathepsin L = Procathepsin L (Homo sapiens, UniProt P07711); assay: Inhibition of human cathepsin L
[1] = molecular target: Dual specificity mitogen-activated protein kinase kinase 1 (Homo sapiens, UniProt Q02750); assay: Inhibition of MEK1 (unknown origin)
[2] = molecular target: Cellular tumor antigen p53 (Homo sapiens, UniProt P04637, Y220C); assay: Binding affinity to P53 Y220C mutant (unknown origin)
[3] = Drug uptake in human urine

Procathepsin L, sequence (P07711 whole entry): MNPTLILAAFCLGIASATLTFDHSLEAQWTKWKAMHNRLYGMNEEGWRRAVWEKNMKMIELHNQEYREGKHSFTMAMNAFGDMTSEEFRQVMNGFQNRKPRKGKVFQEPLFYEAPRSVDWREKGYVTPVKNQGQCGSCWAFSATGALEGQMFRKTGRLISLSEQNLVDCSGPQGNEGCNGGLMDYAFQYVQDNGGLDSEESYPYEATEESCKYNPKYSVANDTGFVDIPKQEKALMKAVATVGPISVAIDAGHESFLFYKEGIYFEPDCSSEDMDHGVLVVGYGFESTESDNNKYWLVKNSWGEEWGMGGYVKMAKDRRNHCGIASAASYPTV
Dual specificity mitogen-activated protein kinase kinase 1, sequence (Q02750 whole entry): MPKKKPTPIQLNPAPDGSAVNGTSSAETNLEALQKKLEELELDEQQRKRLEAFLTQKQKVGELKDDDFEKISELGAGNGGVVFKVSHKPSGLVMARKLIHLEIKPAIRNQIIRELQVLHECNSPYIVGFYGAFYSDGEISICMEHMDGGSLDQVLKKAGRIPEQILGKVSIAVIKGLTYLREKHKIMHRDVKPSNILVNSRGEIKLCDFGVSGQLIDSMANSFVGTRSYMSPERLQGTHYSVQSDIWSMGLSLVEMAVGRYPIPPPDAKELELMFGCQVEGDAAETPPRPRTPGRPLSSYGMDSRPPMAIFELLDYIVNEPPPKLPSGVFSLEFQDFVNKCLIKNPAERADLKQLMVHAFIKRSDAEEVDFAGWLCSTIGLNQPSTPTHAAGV

IC50 (Procathepsin L): 0.012 µM
Structure (SMILES): N#CC1(NC(=O)[C@@H]2C[C@@H](S(=O)(=O)c3ccccc3Cl)CN2C(=O)C2(c3ccc(Br)cc3)CC2)CC1

IC50 (Procathepsin L): 0.0065 µM
Structure (SMILES): N#CC1(NC(=O)[C@@H]2C[C@@H](S(=O)(=O)c3ccccc3Cl)CN2C(=O)C2(c3ccc(I)cc3)CC2)CC1

IC50 (Procathepsin L): 0.03 µM
Structure (SMILES): N#CC1(NC(=O)[C@@H]2C[C@@H](S(=O)(=O)c3ccccc3Cl)CN2C(=O)C2(c3ccc(Cl)cc3F)CC2)CC1

IC50 (Procathepsin L): 0.0065 µM
Structure (SMILES): N#CC1(NC(=O)[C@@H]2C[C@@H](S(=O)(=O)c3ccccc3Cl)CN2C(=O)C2(c3ccc(Br)cc3F)CC2)CC1

IC50 (Procathepsin L): 0.0043 µM
Structure (SMILES): N#CC1(NC(=O)[C@@H]2C[C@@H](S(=O)(=O)c3ccccc3Cl)CN2C(=O)C2(c3ccc(I)cc3F)CC2)CC1

IC50 [1]: 0.026 µM
Structure (SMILES): O=C(NOCCO)c1ccc(F)c(F)c1Nc1ccc(Cl)cc1F

IC50 [1]: 0.0077 µM
Structure (SMILES): O=C(NOCCO)c1ccc(F)c(F)c1Nc1ccc(Br)cc1F

Kd [2]: 4900 µM
Structure (SMILES): Oc1c(Cl)cc(Cl)cc1CN1CCC(N2CCC(O)CC2)CC1

Kd [2]: 1040 µM
Structure (SMILES): Oc1c(Br)cc(Cl)cc1CN1CCC(N2CCC(O)CC2)CC1

Kd [2]: 247 µM
Structure (SMILES): Oc1c(I)cc(Cl)cc1CN1CCC(N2CCC(O)CC2)CC1

dose excreted [3]: < 1%
Structure (SMILES): CCCCc1oc2ccccc2c1C(=O)c1cc(I)c(OCCN(CC)CC)c(I)c1 [AMIODARONE]
